Test results taken from publication PMC10382584, “Macrocyclization of linear molecules by deep learning to facilitate macrocyclic drug candidates discovery” (Nature Communications, 2023).

What was measured:
Assay in all cases: biochemical
Parameters in all cases: DiscoveRx KINOMEscan competition binding, percent of DMSO control signal at 100 nM
Details in all cases: read-out: Fig. 4a / Percent Control / Compound 1; percent of DMSO control, competition binding
[1] = target: AKT3 (Homo sapiens, UniProt Q9Y243)
[2] = target: T1, ARK5 (Homo sapiens, UniProt O60285)
T1 construct: gene NUAK1

[3] = target: CAMK4 (Homo sapiens, UniProt Q16566)
[4] = target: CAMKK2 (Homo sapiens, UniProt Q96RR4)
[5] = target: T2, CDK11 (Homo sapiens, UniProt Q9BWU1)
T2 construct: gene CDK19

[6] = target: EPHA5 (Homo sapiens, UniProt P54756)
[7] = target: EPHB1 (Homo sapiens, UniProt P54762)
[8] = target: T3, ERK3 (Homo sapiens, UniProt Q16659)
T3 construct: gene MAPK6

[9] = target: T4, FAK (Homo sapiens, UniProt Q05397)
T4 construct: gene PTK2

[10] = target: FLT3(ITD,D835V) (Homo sapiens, UniProt P36888, D835V/ITD)
[11] = target: FLT3-autoinhibited (Homo sapiens, UniProt P36888)
[12] = target: GSK3A (Homo sapiens, UniProt P49840)
[13] = target: HIPK1 (Homo sapiens, UniProt Q86Z02)
[14] = target: LIMK1 (Homo sapiens, UniProt P53667)
[15] = target: T5, MST1 (Homo sapiens, UniProt Q13043)
T5 construct: gene STK4

[16] = target: MYO3A (Homo sapiens, UniProt Q8NEV4)
[17] = target: T6, NDR1 (Homo sapiens, UniProt Q15208)
T6 construct: gene STK38

[18] = target: SYK (Homo sapiens, UniProt P43405)
[19] = target: TAOK1 (Homo sapiens, UniProt Q7L7X3)
[20] = target: TIE1 (Homo sapiens, UniProt P35590)
[21] = target: TSSK1B (Homo sapiens, UniProt Q9BXA7)
[22] = target: T7, TYK2(JH1domain-catalytic) (Homo sapiens, UniProt P29597)
T7 construct: JH1domain-catalytic

[23] = target: TYRO3 (Homo sapiens, UniProt Q06418)
[24] = target: ULK1 (Homo sapiens, UniProt O75385)
[25] = target: T8, YANK3 (Homo sapiens, UniProt Q86UX6)
T8 construct: gene STK32C
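Note: KINOMEscan kinase panel binding assay, signal normalized between DMSO as 100% and a positive control compound as 0%.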

Sequence of EPHA5 (P54756 whole entry): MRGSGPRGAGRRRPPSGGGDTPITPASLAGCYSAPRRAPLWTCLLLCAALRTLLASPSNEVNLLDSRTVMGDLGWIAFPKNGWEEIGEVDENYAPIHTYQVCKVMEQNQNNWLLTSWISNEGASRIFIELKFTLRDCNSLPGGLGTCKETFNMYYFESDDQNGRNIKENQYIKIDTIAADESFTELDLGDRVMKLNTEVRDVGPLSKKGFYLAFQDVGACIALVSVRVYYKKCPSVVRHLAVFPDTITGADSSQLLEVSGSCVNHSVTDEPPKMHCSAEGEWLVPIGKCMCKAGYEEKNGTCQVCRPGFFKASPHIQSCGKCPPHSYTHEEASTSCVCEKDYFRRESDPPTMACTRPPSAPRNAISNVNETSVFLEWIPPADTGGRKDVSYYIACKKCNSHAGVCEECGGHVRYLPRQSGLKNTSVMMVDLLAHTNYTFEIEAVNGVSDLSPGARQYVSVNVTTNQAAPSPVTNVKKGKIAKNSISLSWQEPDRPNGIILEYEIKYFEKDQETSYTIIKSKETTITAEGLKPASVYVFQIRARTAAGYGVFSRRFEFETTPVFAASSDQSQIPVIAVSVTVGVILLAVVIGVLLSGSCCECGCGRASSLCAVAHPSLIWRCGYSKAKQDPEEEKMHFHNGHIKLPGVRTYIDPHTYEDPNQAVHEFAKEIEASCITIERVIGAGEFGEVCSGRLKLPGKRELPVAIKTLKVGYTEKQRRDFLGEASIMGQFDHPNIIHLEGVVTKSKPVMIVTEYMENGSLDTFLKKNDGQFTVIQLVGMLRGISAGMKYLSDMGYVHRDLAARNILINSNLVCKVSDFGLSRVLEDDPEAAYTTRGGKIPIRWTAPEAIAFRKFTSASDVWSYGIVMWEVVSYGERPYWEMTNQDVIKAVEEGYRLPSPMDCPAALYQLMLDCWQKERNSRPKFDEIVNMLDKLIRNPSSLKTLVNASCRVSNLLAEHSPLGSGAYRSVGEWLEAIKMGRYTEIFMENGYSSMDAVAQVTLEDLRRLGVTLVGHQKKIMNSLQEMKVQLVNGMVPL
Sequence of EPHB1 (P54762 whole entry): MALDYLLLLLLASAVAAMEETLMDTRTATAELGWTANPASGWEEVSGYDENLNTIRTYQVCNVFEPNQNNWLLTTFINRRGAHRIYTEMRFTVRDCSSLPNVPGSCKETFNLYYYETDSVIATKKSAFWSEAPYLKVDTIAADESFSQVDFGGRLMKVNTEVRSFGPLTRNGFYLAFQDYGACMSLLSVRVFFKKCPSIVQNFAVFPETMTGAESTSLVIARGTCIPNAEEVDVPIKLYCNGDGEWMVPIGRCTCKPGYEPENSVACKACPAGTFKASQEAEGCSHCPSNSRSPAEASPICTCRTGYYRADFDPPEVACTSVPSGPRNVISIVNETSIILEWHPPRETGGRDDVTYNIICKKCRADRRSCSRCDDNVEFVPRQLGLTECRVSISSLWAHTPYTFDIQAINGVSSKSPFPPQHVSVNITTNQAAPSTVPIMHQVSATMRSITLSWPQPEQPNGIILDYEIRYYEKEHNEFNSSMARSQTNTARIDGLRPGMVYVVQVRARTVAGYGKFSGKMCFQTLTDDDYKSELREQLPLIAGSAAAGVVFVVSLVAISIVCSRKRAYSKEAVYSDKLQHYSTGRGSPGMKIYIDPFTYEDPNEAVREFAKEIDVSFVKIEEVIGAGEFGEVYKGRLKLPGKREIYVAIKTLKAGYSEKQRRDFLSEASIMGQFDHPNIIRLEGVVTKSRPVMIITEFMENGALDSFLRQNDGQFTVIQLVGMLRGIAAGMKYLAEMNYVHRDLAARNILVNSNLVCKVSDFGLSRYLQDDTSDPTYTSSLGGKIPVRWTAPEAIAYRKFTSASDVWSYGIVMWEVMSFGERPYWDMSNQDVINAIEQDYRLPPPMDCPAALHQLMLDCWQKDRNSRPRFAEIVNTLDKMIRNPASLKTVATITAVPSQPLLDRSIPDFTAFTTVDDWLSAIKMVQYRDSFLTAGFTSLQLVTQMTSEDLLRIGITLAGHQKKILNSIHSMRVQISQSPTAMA
Sequence of ULK1 (O75385 whole entry): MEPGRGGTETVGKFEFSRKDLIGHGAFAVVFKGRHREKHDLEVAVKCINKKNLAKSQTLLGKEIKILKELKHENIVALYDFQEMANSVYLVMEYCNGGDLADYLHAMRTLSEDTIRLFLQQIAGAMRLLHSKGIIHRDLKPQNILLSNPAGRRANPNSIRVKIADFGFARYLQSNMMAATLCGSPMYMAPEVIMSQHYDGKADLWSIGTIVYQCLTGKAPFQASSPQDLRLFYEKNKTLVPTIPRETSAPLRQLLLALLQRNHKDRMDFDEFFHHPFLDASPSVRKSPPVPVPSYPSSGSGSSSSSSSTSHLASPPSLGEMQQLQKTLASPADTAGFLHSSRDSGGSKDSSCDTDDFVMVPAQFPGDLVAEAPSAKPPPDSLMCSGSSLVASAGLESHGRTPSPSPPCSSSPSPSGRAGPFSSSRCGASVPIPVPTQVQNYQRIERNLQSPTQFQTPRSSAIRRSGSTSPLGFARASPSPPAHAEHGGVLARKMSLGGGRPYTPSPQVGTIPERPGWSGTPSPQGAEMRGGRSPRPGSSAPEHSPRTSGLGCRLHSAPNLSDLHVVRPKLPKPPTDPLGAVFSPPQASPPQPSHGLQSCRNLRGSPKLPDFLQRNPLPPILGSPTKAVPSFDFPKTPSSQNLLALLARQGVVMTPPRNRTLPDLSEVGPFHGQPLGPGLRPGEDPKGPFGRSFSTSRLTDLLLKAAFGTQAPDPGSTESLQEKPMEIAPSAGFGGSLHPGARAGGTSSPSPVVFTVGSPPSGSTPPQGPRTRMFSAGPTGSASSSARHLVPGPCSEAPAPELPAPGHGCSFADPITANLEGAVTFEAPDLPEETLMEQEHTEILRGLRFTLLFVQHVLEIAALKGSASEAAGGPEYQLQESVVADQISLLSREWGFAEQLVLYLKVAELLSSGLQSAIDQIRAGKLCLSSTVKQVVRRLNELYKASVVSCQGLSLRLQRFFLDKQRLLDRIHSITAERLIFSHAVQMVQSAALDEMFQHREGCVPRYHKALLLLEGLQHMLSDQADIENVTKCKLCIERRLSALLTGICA
Sequence of TSSK1B (Q9BXA7 whole entry): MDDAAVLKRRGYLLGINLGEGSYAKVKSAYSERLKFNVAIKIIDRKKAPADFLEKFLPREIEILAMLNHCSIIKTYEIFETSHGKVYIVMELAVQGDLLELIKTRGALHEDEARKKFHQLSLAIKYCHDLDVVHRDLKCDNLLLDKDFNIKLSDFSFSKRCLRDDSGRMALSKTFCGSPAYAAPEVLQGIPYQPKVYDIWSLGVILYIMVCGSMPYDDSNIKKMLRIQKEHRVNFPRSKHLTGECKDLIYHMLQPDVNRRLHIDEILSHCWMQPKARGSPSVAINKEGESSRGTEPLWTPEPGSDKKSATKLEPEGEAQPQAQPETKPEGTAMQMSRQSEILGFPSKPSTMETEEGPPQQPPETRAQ
Sequence of MYO3A (Q8NEV4 whole entry): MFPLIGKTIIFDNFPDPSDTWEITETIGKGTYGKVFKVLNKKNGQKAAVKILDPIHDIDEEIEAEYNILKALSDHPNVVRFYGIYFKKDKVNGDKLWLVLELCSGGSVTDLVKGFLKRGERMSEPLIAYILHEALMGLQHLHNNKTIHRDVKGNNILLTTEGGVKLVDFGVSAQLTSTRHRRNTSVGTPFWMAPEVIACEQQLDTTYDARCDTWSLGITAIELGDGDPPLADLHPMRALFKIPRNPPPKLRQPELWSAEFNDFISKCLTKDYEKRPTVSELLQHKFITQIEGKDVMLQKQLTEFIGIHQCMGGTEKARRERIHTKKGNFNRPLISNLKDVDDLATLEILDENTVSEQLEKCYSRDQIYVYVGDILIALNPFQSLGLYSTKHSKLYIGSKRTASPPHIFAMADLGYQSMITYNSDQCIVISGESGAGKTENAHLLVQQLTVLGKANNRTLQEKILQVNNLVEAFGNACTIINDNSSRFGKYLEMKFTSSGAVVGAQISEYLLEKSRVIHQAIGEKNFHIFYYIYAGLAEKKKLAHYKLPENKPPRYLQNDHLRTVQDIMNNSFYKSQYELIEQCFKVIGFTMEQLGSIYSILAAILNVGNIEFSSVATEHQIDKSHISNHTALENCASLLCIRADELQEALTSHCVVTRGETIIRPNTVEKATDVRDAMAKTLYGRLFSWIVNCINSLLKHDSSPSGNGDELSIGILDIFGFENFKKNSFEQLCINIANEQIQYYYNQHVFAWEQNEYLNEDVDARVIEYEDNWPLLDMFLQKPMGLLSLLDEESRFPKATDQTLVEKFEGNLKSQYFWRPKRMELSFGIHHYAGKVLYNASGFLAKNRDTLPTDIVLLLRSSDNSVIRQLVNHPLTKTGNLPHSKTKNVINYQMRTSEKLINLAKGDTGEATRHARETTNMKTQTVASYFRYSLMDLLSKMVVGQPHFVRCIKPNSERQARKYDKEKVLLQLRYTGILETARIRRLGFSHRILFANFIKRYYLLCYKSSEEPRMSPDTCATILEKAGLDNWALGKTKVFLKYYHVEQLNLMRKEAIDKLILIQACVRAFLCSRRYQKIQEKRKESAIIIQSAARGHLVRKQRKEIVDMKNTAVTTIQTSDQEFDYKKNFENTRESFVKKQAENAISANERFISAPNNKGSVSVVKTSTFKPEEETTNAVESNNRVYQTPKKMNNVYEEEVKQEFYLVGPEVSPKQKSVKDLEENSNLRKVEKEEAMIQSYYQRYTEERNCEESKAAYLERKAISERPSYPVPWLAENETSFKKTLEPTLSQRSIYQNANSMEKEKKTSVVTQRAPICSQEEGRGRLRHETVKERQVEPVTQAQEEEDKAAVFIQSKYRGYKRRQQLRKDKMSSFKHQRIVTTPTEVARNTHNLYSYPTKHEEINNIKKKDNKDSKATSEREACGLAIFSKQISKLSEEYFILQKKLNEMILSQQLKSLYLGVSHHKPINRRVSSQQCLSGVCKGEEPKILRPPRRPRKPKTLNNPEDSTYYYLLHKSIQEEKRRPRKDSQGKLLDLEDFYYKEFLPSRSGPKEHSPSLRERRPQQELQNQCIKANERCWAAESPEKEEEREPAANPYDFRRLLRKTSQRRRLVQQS

## Cc1cnc2nc1Nc1cccc(c1)COCc1cc(ccc1OCCN1CCCC1)N2 [Compound 1]
[1]
  remaining binding at 0.1 µM: 100%
[2]
  remaining binding at 0.1 µM: 51%
[3]
  remaining binding at 0.1 µM: 100%
[4]
  remaining binding at 0.1 µM: 96%
[5]
  remaining binding at 0.1 µM: 96%
[6]
  remaining binding at 0.1 µM: 100%
[7]
  remaining binding at 0.1 µM: 97%
[8]
  remaining binding at 0.1 µM: 82%
[9]
  remaining binding at 0.1 µM: 95%
[10]
  remaining binding at 0.1 µM: 2.1%
[11]
  remaining binding at 0.1 µM: 48%
[12]
  remaining binding at 0.1 µM: 100%
[13]
  remaining binding at 0.1 µM: 66%
[14]
  remaining binding at 0.1 µM: 88%
[15]
  remaining binding at 0.1 µM: 100%
[16]
  remaining binding at 0.1 µM: 100%
[17]
  remaining binding at 0.1 µM: 87%
[18]
  remaining binding at 0.1 µM: 99%
[19]
  remaining binding at 0.1 µM: 72%
[20]
  remaining binding at 0.1 µM: 94%
[21]
  remaining binding at 0.1 µM: 92%
[22]
  remaining binding at 0.1 µM: 27%
[23]
  remaining binding at 0.1 µM: 55%
[24]
  remaining binding at 0.1 µM: 52%
[25]
  remaining binding at 0.1 µM: 99%
